The structures appear in SMILES notation.

Assay [1] concerns GG1 with a T4 hairpin loop (DNA, mismatch bulge abasic) CTAACGGAATGTTTTCATTCGGTTAG
The assay can be described thus: CSI-TOF MS. To be noted: NH4+ 100 mM (ammonium acetate); 50% aqueous methanol, spray -10 °C; 5 µM DNA, 100 µM NCD; 1:1 complex not observed.

In assay [2] the test system is GG1 (DNA, mismatch bulge abasic) CTAACGGAATG/CATTCGGTTAG
The experiment in a line: UV melting at 260 nm. To be noted: Na+ 100 mM (NaCl); 10 mM sodium cacodylate pH 7.0; 5 µM DNA, 20 µM NCD; Tm without and with NCD.

The test system is the same in assay [3]. The assay can be described thus: ITC. The note with it: Na+ 100 mM (NaCl), 10 mM sodium cacodylate pH 7.0, 25 °C, 2.5 µM DNA, 50 µM NCD titrant.
Assay [4] has the same test system. The experiment in a line: NMR structure and titration. To be noted: Na+ 100 mM (NaCl); 20 mM sodium phosphate pH 6.8, 283 K; slow exchange, cooperative.
The subject of assay [5] is d(CGG)10 (DNA, repeat) CGGCGGCGGCGGCGGCGGCGGCGGCGGCGG
The experiment in a line: CSI-TOF MS. The note with it: NH4+ 100 mM (ammonium acetate); 50% aqueous methanol, spray -10 °C; 10 µM DNA, 50 µM NCD.

In assay [6] the test system is GG1 (DNA, mismatch bulge abasic) CTAACGGAATG/CATTCGGTTAG
The experiment in a line: CD. The note with it: Na+ 100 mM (NaCl); 10 mM sodium cacodylate pH 7.0, room temperature; 5 µM DNA, 20 µM NCD.

With `Cc1ccc2ccc(NC(=O)OCCCNCCCOC(=O)Nc3ccc4ccc(C)nc4n3)nc2n1`, the binding entry in assay [1], in assay [4], in assay [5] and in assay [6] was “yes” in each case. In assay [2], the Tm amounted to 21.8 °C. For the same compound, the apparent KD (in general, a dissociation constant that holds for the conditions of the assay) in assay [3] turned out to be 67 nM.
